The target of one assay is T1, P2Y2 receptor (Homo sapiens, UniProt P41231).
T1 construct: gene P2RY2; native endogenous receptor in primary human adipose-derived mesenchymal stromal cells (female donors)
The assay is described as follows: Fura-2 intracellular calcium, FlexStation, native AD-MSCs. In kind it is cell-based. To be noted: agonist; peak calcium response; […] °C, pH […] extracellular Ca2+; receptor assigned by antagonist. The text has this: Fura-2 intracellular calcium, FlexStation, native AD-MSCs on P2Y2 receptor
Background: Calcium assays in cells follow changes in intracellular calcium, usually with a dye or a luminescent sensor.

The target of another assay is T2, P2Y6 receptor (Homo sapiens, UniProt Q15077).
T2 construct: gene P2RY6
As to conditions: antagonist against […] ADP; peak magnitude; cells do not respond to UDP up to […]; […] °C, pH […].

T1 sequence (P41231 whole entry): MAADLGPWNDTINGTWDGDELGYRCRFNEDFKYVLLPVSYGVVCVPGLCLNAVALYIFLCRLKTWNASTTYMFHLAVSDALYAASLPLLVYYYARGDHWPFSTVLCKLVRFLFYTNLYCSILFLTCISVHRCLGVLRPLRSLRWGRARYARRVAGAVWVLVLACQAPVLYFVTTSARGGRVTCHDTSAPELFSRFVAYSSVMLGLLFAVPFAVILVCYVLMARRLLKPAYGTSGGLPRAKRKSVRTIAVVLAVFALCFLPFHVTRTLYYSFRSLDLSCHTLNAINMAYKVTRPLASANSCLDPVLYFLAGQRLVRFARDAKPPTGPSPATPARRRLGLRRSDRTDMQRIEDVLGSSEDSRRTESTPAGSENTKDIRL
T2 sequence (Q15077 whole entry): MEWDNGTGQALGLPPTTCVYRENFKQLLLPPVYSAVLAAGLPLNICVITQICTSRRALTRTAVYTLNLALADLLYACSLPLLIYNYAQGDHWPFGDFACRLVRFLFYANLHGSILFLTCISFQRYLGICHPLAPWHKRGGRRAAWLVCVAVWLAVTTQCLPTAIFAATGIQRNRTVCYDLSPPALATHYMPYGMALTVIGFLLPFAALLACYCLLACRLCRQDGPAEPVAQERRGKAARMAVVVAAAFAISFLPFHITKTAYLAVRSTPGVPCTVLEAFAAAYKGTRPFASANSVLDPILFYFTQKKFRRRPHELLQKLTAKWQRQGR

In general, EC50 refers to the concentration giving half of the maximal effect. In the case of `Nc1ncnc2c1ncn2[C@@H]1O[C@H](COP(=O)(O)OP(=O)(O)OP(=O)(O)O)[C@@H](O)[C@H]1O` [ATP], the concentration giving a half-maximal response (EC50) at P2Y2 receptor is 2.24 ± 1.1 µM.
As usually defined, the IC50 is the point on the concentration scale where inhibition reaches its midpoint. At P2Y6 receptor, `S=C=Nc1cccc(NC(=S)NCCCCNC(=S)Nc2cccc(N=C=S)c2)c1` [MRS2578] gave a 50% inhibitory concentration (IC50) of 0.437 ± 0.133 µM.
For `O=c1ccn([C@@H]2O[C@H](COP(=O)(O)OP(=O)(O)OP(=O)(O)O)[C@@H](O)[C@H]2O)c(=O)[nH]1` [UTP], the EC50 at P2Y2 receptor was determined as 3.24 ± 2.8 µM.

Source of the values: PMC6298923, “P2Y2 and P2Y6 receptor activation elicits intracellular calcium responses in human adipose-derived mesenchymal stromal cells” (Purinergic Signalling, 2018).
